# In publication PMC8665847 (European Journal of Medicinal Chemistry, 2021):
# What was measured:
# SARS-CoV-2 3CL^pro = SARS-CoV-2 3CL^pro (Severe acute respiratory syndrome coronavirus 2, UniProt P0DTD1); test: biochemical; format: biochemical; details: for time dependence of the level of inhibition: incubation time 0-60 min, inhibitor close to its IC50 concentration (Fig. S4)
# 3CL^pro = 3CL^pro (Severe acute respiratory syndrome coronavirus 2, UniProt P0DTD1); test: LC-MS detection of 3CLpro-inhibitor covalent adducts; format: binding, SARS-CoV-2
# SARS-CoV 3CL^pro = details: cited from earlier work
structure (smiles),measurement,setting,value
"C=CS(=O)(=O)N(c1ccc(C(C)(C)C)cc1)[C@@H](C(=O)N[C@@H](C)c1ccccc1)c1cccnc1 (mixture of isomers) [14g, (S)- and (R)-2-(N-(4-(tert-butyl)phenyl)vinylsulfonamido)-N-((S)-1-phenylethyl)-2-(pyridin-3-yl)acetamide]",inhibition at 50 µM,SARS-CoV-2 3CL^pro,> 95%
same,times more potent than diastereomer 14h,SARS-CoV-2 3CL^pro; ratio of IC50,approximately 20 times
"C=CS(=O)(=O)N(c1ccc(C(C)(C)C)cc1)[C@H](C(=O)N[C@@H](C)c1ccccc1)c1cccnc1 (mixture of isomers) [14h, (S)- and (R)-2-(N-(4-(tert-butyl)phenyl)vinylsulfonamido)-N-((S)-1-phenylethyl)-2-(pyridin-3-yl)acetamide]",inhibition at 50 µM,SARS-CoV-2 3CL^pro,> 95%
"C=CC(=O)N(c1ccc(C(C)(C)C)cc1)C(C(=O)NC1CCCCC1)c1cccnc1 (stereo not drawn) [6a, N-(4-(tert-butyl)phenyl)-N-(2-(cyclohexylamino)-2-oxo-1-(pyridin-3-yl)ethyl) acrylamide]",IC50,SARS-CoV-2 3CL^pro,11.1 ± 1.5 µM
"C=CS(=O)(=O)N(c1ccc(C(C)(C)C)cc1)C(C(=O)NC1CCCCC1)c1cccnc1 (stereo not drawn) [14a, 2-(N-(4-(tert-butyl)phenyl)vinylsulfonamido)-N-cyclohexyl-2-(pyridin-3-yl)acetamide]",presence of 3CLpro-inhibitor adduct by LC-MS,3CL^pro,confirmed
same,IC50,SARS-CoV-2 3CL^pro,0.5 µM
same,time dependence of the level of inhibition,SARS-CoV-2 3CL^pro,increased with incubation time
"CC(C)(C)c1ccc(N(C(=O)CCl)C(C(=O)NC2CCCCC2)c2cccnc2)cc1 (stereo not drawn) [16a, N-(4-(tert-butyl)phenyl)-2-chloro-N-(2-(cyclohexylamino)-2-oxo-1-(pyridin-3-yl)ethyl) acetamide]",presence of 3CLpro-inhibitor adduct by LC-MS,3CL^pro,confirmed
same,time dependence of the level of inhibition,SARS-CoV-2 3CL^pro,increased with incubation time
"CC(C)(C)c1ccc(N(C(=O)C#CCO)C(C(=O)NC2CCCCC2)c2cccnc2)cc1 (stereo not drawn) [23a, N-(4-(tert-butyl)phenyl)-N-(2-(cyclohexylamino)-2-oxo-1-(pyridin-3-yl)ethyl)-4-hydroxybut-2-ynamide]",improvement in potency over alkynylamide analogue 13a,SARS-CoV-2 3CL^pro; ratio of IC50,~10 fold
"CC(C)(C)c1ccc(N(C(=O)c2c[nH]cn2)C(C(=O)NC2CCCCC2)c2cccnc2)cc1 (stereo not drawn) [X77, N-(4-(tert-butyl)phenyl)-N-(2-(cyclohexylamino)-2-oxo-1-(pyridin-3-yl)ethyl)-1H-imidazole-5-carboxamide]",IC50,SARS-CoV 3CL^pro,3.4 µM
